Laboratory results from US20090117083A1, “IMMUNOMODULATORY ALKALOIDS” (M N L PHARMA LIMITED, priority 2004, published 2009).
Where two headings read alike, the source gives them in different places.

Experiments:
α-D-glucosidase [1] = biological target: T1, α-D-glucosidase (Saccharomyces cerevisiae, UniProt P53341); experiment: Glycosidase inhibition (p-nitrophenyl substrate): α-D-glucosidase, yeast; type: biochemical, Saccharomyces cerevisiae (Baker's yeast)
T1 construct: purchased Sigma
Procedure, shortened: (§1)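 p-Nitrophenyl glycoside hydrolysis, 405 nm endpoint. Substrate 3.57 mM final; McIlvaine buffer at optimum pH per enzyme; 20° C; stop with 0.4M glycine pH 10.4 during exponential phase; water replaces inhibitor in blanks.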

β-D-glucosidase = experiment: Glycosidase inhibition: β-D-glucosidase, almond; type: biochemical, Almonds (Prunus sp.)
Procedure, shortened: as §1

α-D-glucosidase [2] = biological target: T2, α-D-glucosidase (Oryza sativa subsp. japonica, UniProt Q653V7); experiment: Glycosidase inhibition: α-D-glucosidase, rice; type: biochemical, rice (Oryza sativa); details: 1 mg/ml; read-out: % inhibition, gluc (rice)
T2 construct: purchased Sigma
T2 sequence (Q653V7 34-885): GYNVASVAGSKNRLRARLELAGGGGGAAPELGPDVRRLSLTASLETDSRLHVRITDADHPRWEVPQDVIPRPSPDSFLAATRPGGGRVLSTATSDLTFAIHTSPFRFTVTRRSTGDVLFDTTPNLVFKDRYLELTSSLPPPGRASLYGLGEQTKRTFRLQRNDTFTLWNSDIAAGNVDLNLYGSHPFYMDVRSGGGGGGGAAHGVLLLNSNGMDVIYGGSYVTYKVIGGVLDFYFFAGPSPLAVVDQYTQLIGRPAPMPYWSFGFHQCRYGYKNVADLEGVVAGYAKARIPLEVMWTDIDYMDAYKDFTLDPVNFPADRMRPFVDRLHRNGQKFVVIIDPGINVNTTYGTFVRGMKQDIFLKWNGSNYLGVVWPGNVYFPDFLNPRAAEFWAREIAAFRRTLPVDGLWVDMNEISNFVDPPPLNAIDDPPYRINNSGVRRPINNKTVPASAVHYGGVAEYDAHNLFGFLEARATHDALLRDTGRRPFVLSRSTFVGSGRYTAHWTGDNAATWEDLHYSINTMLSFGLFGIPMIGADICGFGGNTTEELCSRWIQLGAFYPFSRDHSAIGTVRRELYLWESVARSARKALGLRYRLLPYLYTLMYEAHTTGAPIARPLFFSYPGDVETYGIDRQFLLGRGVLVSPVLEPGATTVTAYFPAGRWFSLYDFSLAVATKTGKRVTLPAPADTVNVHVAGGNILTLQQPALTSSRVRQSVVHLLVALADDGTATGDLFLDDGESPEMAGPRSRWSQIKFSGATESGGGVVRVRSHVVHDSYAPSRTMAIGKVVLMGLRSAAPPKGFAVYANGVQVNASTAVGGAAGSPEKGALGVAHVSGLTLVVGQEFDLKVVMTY
Procedure, shortened: as §1

[3] = biological target: T3, rabbit small intestine sucrase (Oryctolagus cuniculus, UniProt P07768); experiment: Inhibition of rabbit small intestine sucrase; type: biochemical; details: 700 μM
T3 construct: from tissue; host or cells: rabbit small intestine
T3 sequence (P07768 1008-1827 limits assumed): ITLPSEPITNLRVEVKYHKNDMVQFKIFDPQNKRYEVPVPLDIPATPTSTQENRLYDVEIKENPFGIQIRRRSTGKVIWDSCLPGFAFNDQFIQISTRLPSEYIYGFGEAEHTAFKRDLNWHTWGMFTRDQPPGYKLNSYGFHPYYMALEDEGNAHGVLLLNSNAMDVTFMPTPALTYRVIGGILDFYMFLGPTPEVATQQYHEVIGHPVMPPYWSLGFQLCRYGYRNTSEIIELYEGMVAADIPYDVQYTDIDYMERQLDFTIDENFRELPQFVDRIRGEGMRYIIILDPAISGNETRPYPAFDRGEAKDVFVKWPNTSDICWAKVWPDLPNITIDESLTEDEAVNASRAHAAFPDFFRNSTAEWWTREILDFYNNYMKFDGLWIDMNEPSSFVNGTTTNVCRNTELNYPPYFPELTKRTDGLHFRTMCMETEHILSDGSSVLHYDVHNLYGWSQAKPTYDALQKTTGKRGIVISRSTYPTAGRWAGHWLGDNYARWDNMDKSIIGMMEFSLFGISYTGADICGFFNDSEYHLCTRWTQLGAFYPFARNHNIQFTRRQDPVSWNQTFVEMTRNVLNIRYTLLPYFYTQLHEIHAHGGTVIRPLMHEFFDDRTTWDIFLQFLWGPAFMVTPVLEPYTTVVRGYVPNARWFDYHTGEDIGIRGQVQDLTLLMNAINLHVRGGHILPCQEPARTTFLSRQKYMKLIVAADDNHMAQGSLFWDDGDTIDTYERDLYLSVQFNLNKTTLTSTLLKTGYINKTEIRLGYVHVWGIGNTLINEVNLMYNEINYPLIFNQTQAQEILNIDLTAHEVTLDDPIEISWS
T3 sequence (P07768 2-1007 partner limits assumed): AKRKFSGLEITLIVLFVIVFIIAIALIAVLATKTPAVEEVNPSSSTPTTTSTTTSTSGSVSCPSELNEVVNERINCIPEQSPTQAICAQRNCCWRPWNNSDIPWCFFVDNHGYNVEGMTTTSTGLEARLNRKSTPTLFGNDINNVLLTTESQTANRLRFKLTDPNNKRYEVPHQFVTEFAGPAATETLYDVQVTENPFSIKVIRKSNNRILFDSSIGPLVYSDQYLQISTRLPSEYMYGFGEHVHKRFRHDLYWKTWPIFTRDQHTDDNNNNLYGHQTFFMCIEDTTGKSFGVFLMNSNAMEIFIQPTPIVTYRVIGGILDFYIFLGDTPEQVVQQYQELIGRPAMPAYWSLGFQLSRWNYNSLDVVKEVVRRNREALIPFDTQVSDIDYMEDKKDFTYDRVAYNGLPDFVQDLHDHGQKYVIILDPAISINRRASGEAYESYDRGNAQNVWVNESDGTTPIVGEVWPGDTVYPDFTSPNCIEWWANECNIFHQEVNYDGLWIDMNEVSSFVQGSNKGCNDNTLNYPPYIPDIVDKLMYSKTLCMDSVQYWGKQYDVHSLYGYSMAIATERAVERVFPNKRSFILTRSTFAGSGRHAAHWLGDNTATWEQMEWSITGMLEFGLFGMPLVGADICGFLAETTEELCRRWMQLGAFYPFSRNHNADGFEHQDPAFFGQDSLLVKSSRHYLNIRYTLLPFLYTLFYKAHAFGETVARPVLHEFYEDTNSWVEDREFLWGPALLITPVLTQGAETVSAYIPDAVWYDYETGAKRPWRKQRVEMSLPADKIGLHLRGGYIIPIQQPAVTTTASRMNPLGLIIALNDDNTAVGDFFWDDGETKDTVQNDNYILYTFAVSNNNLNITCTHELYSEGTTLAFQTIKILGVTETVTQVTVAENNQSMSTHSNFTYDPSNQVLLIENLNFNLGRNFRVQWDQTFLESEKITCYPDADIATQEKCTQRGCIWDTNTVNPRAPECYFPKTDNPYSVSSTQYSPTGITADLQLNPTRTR

α-D-glucosidase [4] = experiment: Glycosidase inhibition: α-D-glucosidase, Bacillus; type: biochemical, Bacillus stearothermophilus; details: 1 mg/ml
Procedure, shortened: as §1

[5] = tested on: N-acetyl-β-D-glucosaminidase; experiment: Glycosidase inhibition: N-acetyl-β-D-glucosaminidase; type: biochemical, Bovine; details: 1 mg/ml
Procedure, shortened: as §1

B16-F10 tumour cells = experiment: Control of lung metastasis in mice (B16-F10); type: in vivo, C57/bl6 mice; details: 50 mg/kg s/c on days 2 and 4; lungs on day 14
Procedure: Mice (C57/bl6 under i/p ketamine anaesthesia) were challenged i/v (tail vein) with 5×10^4 B16-F10 tumour cells in a final volume of 100 μl per mouse on day 0. Test compounds (50 mg/kg in 200 μl sterile non-pyrogenic saline) were administered sic (right flank) on days 2 and 4. On day 14 the mice were sacrifices and the lungs dissected and stained in Indian ink solution (150 ml bidistilled water, 30 ml India Ink, 4 drops NH4OH) for 10 minutes then fixed for at least 24 hr in Fakete's solution (90 ml 37% formaldehyde, 900 ml 70% EtOH and 45 ml glacial acetic acid). The metastases in the stained and fixed lungs could then be visualized, counted and photographed.

α-D-galactosidase = biological target: T4, α-D-galactosidase (Coffea arabica, UniProt Q42656); experiment: Glycosidase inhibition: α-D-galactosidase; type: biochemical, Green coffee beans (Coffea sp.); details: read-out: % inhibition, galactosidase
T4 construct: purchased Sigma
T4 sequence (Q42656 16-378): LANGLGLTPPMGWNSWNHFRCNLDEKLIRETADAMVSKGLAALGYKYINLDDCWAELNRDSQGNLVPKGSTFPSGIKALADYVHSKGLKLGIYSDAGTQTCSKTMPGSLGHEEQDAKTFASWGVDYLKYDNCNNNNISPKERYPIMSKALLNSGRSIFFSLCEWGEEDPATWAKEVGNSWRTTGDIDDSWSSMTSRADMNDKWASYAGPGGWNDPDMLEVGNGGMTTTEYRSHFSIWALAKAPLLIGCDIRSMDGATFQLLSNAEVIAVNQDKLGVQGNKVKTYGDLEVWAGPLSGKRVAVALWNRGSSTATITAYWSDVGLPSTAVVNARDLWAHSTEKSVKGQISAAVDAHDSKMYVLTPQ
Procedure, shortened: as §1

[6] = tested on: Na^+-dependent D-glucose uptake; experiment: Na+-dependent D-glucose uptake into intestinal brush border membrane vesicles; type: biochemical, ovine
Naringinase = experiment: Glycosidase inhibition: Naringinase; type: biochemical, Penecillium decumbens; details: 1 mg/ml
Procedure, shortened: as §1

MCF-7 cells = experiment: Effect on glycosylation of breast cancer cells (N-glycan HPLC); type: cell-based; details: 0.75 mM, 62 and 86 hour time points
Procedure: MCF-7 cells (European Collection of Cell Cultures Ref. 86012803) were taken from liquid nitrogen stock, thawed at room temperature and transferred to 10 ml Dulbeccos Modified Eagle's Medium with Hams F12, 15 mM Hepes and L-glutamine (DMEM: Cambrex Cat. No. BE12-719F) supplemented with 10% v/v foetal calf serum (FCS: BioWest Labs Cat. No. S02755, Lot. No. S1800). The FCS was pre-filtered through a 0.2 μm sterile filter.
The cells were then centrifuged at 1,500 rpm in a Centaur bench-top centrifuge and the supernatant removed. The cells were reconstituted in fresh media and seeded into two T75 cm^3 Nunclon tissue culture flasks and allowed to settle overnight at 37° C. in a 5% CO2 incubator. The flasks were wrapped in cling film to prevent cross-contamination and the following day the media was changed to include the antibiotics penicillin and streptomycin as a precautionary measure against infection (at concentrations of 1 mg/cm^3 and 5 mg/cm^3, respectively). […]
The cells were harvested using a non-enzymatic method. At each of the time points the cells were viewed under the inverted light microscope and the morphology evaluated. […] The number of cells was then counted in a haemocytometer and cell viability evaluated by mixing 0.1 cm^3 of each cell suspension with a drop of trypan blue solution. […]
Evaluated using the BioRad protein assay according to the manufacturer's instructions. […]

[7] = biological target: rabbit gut mucosa α-D-glucosidase; experiment: Inhibition of rabbit gut mucosa α-D-glucosidase; type: biochemical
dendritic cells = experiment: Induction of IL-12 secretion in dendritic cells (ELISA); type: cell-based, BALB/c mice; details: casuarine alone, absence of LPS; 1 μg/ml versus 40 μg/ml
[8] = Group 1: 15 mg/kg i.p. daily, day 0
[9] = Group 1: 15 mg/kg i.p. daily, day 1
[10] = Group 1: 15 mg/kg i.p. daily, day 2
[11] = Group 1: 15 mg/kg i.p. daily, day 3
[12] = Group 1: 15 mg/kg i.p. daily, day 4
[13] = Group 1: 15 mg/kg i.p. daily, day 5
[14] = Group 1: 15 mg/kg i.p. daily, day 6
[15] = Group 1: 15 mg/kg i.p. daily, day 7
[16] = Group 1: 15 mg/kg i.p. daily, day 8
[17] = Group 1: 15 mg/kg i.p. daily, day −2
[18] = Group 2: 150 mg/kg i.p. daily, day 0
[19] = Group 2: 150 mg/kg i.p. daily, day 1
[20] = Group 2: 150 mg/kg i.p. daily, day 2
[21] = Group 2: 150 mg/kg i.p. daily, day 3
[22] = Group 2: 150 mg/kg i.p. daily, day 4
[23] = Group 2: 150 mg/kg i.p. daily, day 5
[24] = Group 2: 150 mg/kg i.p. daily, day 6
[25] = Group 2: 150 mg/kg i.p. daily, day 7
[26] = Group 2: 150 mg/kg i.p. daily, day 8
[27] = Group 2: 150 mg/kg i.p. daily, day −2

T1 sequence (P53341 whole entry): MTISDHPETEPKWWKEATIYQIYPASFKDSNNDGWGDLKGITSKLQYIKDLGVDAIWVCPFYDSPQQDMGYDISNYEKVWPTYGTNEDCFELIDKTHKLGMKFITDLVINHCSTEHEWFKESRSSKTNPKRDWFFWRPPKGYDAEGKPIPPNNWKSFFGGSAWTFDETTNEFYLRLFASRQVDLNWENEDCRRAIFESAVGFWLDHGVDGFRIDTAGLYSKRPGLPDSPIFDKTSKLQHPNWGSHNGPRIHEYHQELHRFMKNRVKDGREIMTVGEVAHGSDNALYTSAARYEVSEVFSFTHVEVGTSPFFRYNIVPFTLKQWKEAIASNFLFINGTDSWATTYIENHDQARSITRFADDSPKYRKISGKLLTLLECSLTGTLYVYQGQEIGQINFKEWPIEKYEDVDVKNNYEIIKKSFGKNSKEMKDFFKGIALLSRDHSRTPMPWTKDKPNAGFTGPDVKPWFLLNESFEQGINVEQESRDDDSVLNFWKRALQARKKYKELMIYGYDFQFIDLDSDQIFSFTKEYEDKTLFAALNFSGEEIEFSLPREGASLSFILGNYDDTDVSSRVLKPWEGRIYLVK

## OC[C@@H]1[C@@H](O)[C@H](O)[C@H]2[C@H](O)[C@@H](O)CN21 [casuarine (8)]
HSV-1 (SC16); [8]
  Group mean weight: 16.7 g
  Weight (% change): 3.1%
HSV-1 (SC16); [9]
  Group mean weight: 17.1 g
  Weight (% change): 5.6%
HSV-1 (SC16); [10]
  Group mean weight: 17.1 g
  Weight (% change): 5.6%
HSV-1 (SC16); [11]
  Group mean weight: 17.6 g
  Weight (% change): 8.6%
HSV-1 (SC16); [12]
  Group mean weight: 17.4 g
  Weight (% change): 7.4%
HSV-1 (SC16); [13]
  Group mean weight: 17.6 g
  Weight (% change): 8.6%
HSV-1 (SC16); [14]
  Group mean weight: 17.7 g
  Weight (% change): 9.2%
HSV-1 (SC16); [15]
  Group mean weight: 17.4 g
  Weight (% change): 7.4%
HSV-1 (SC16); [16]
  Group mean weight: 17.7 g
  Weight (% change): 9.3%
HSV-1 (SC16); [17]
  Group mean weight: 16.2 g
  Weight (% change): 0%
HSV-1 (SC16); [18]
  Group mean weight: 16 g
  Weight (% change): 3.2%
HSV-1 (SC16); [19]
  Group mean weight: 16.4 g
  Weight (% change): 5.8%
HSV-1 (SC16); [20]
  Group mean weight: 16.3 g
  Weight (% change): 5.2%
HSV-1 (SC16); [21]
  Group mean weight: 16.6 g
  Weight (% change): 7.1%
HSV-1 (SC16); [22]
  Group mean weight: 16.4 g
  Weight (% change): 5.8%
HSV-1 (SC16); [23]
  Group mean weight: 16.8 g
  Weight (% change): 8.4%
HSV-1 (SC16); [24]
  Group mean weight: 17 g
  Weight (% change): 9.7%
HSV-1 (SC16); [25]
  Group mean weight: 16.7 g
  Weight (% change): 7.7%
HSV-1 (SC16); [26]
  Group mean weight: 16.8 g
  Weight (% change): 8.4%
HSV-1 (SC16); [27]
  Group mean weight: 15.5 g
  Weight (% change): 0%
HSV-1 (SC16); versus infected untreated group
  ear thickness response: produced a reduction in ear thickness
α-D-glucosidase [1]
  Ki: 217 µM
α-D-glucosidase [1]; 1 mg/ml, read-out: % inhibition, gluc (yeast)
  inhibition at 1000 µg/mL: 64%
β-D-glucosidase; 800 μM
  inhibition of almond β-D-glucosidase: not being inhibitory
β-D-glucosidase; 1 mg/ml
  % inhibition, glucosidase: 0%
α-D-glucosidase [2]
  inhibition at 1000 µg/mL: 76%
[3]
  inhibition of rabbit small intestine sucrase: inhibited
α-D-glucosidase [4]
  % inhibition, gluc (Bacillus): 86%
[5]
  % inhibition, N-acetyl-β-gluc: 14%
B16-F10 tumour cells
  Metastatic morphology: Metastasis restricted to apical tip of lung
α-D-galactosidase
  inhibition at 1000 µg/mL: 4%
[6]; initial rate, competition with labelled D-glucose, control 240
  Glucose uptake: 265 pmol/s/mg
[6]; versus control
  glucose transport, effect: slightly stimulated
Naringinase
  % inhibition, Naringinase: −2%
MCF-7 cells
  glycan synthesis and/or N-linked glycosylation in breast cancer cells: can inhibit glycan synthesis and/or N-linked glycosylation
[7]
  IC50: 210 µM
Dendritic cells
  induction of IL-12 secretion, dose response: higher at low doses than high
